# Where “and” joins values, the source holds several entries; their conditions need not be identical. Equal values may be shown once.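 Cultured in 96-well plates, cells were exposed to test compound for 48 hours across five concentrations. Here, GI50 denotes the concentration required for 50% inhibition of growth. TGI: total growth inhibition.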
# Experiments:
# Assay in all cases: NCI anticancer screen, dose series, 48 h
# T-47D breast = test system: T-47D breast
# RXF 393 renal = test system: RXF 393 renal
# EKVX NSCLC = test system: EKVX NSCLC
# OVCAR-5 ovarian = test system: OVCAR-5 ovarian
# U251 CNS = test system: U251 CNS
# SR leukemia = test system: SR leukemia
# 786-0 renal = test system: 786-0 renal
# A549 NSCLC = test system: A549 NSCLC
# SNB-19 CNS = test system: SNB-19 CNS
# MDA-MB-231 breast = test system: MDA-MB-231 breast
SMILES,TGI (T-47D breast),GI50 (RXF 393 renal),TGI (RXF 393 renal),TGI (EKVX NSCLC),TGI (OVCAR-5 ovarian),TGI (U251 CNS),TGI (SR leukemia),TGI (786-0 renal),TGI (A549 NSCLC),TGI (SNB-19 CNS),TGI (MDA-MB-231 breast),GI50 (T-47D breast),GI50 (EKVX NSCLC),GI50 (OVCAR-5 ovarian),GI50 (U251 CNS),GI50 (SR leukemia),GI50 (786-0 renal),GI50 (A549 NSCLC),GI50 (SNB-19 CNS),GI50 (MDA-MB-231 breast)
Nc1nc(N)c2c(n1)CCC(S(=O)(=O)c1ccc3ccccc3c1)C2 (stereo not given),> 100 µM,2.53 µM,57.8 µM,> 100 µM,> 100 µM,> 100 µM,17.8 µM,> 100 µM,> 100 µM,> 85.2 µM,> 60.5 µM,–,–,–,–,–,–,–,–,–
CC#CC#C/C(=C/C=CC(=O)OC)SC,> 100 µM,–,–,> 100 µM,> 100 µM,> 100 µM,–,> 100 µM,> 100 µM,–,> 100 µM,–,–,–,–,–,–,–,–,–
C=CC(=O)N1CCC[C@@H](n2nc(-c3ccc(Oc4ccccc4)cc3)c3c(N)ncnc32)C1,> 10 µM,> 5.25 µM,> 10 µM,> 10 µM,> 10 µM,> 10 µM,> 10 µM,> 10 µM,> 10 µM,> 10 µM,> 10 µM,0.0945 µM,0.396 µM,> 10 µM,9.81 µM,> 10 µM,> 4.5 µM,> 10 µM,> 10 µM,9.69 µM
COc1ccc(/C=C/C(=O)/C=C(O)/C=C/c2ccc(OC)c(OC)c2)cc1OC,> 100 µM,–,–,> 100 µM,46.4 µM,> 100 µM,> 100 µM,25.7 µM,> 100 µM,> 100 µM,> 100 µM,76.9 µM,4.13 µM,6.42 µM,2.99 µM,1.68 µM,3.03 µM,37.9 µM,28 µM,6.19 µM
CCCCCCCCCC[C@H](O)[C@H]1CC[C@@H]([C@@H](O)CC[C@H](O)[C@@H]2CCC(CCCCCCC[C@@H](O)CC3=C[C@H](C)OC3=O)O2)O1 (stereo not given in full),17.6 µM,–,19.8 µM,6.86 µM and 22.4 µM,28.4 µM,–,–,3.64 µM and 20.7 µM,18.5 µM,4.71 µM and 19.6 µM,7.03 µM and 44.2 µM,1.87 µM,5.17 µM,12 µM,8.25 µM,–,4.9 µM,2.89 µM,–,–
O=c1/c(=C\c2ccc(Br)cc2)sc2n1C(c1ccc(Br)cc1)C1=C(N=2)c2ccc3ccccc3c2OCC1 (stereo not given),> 100 µM,> 100 µM,> 100 µM,> 100 µM,> 100 µM,> 100 µM,> 100 µM,> 100 µM,> 100 µM,> 100 µM,> 100 µM,> 100 µM,> 100 µM,> 100 µM,> 100 µM,35.4 µM,> 100 µM,> 100 µM,> 100 µM,> 100 µM
Nc1n[nH]c2ccc([C@@H]3Nc4ccc5cn[nH]c5c4[C@H]4C5CCC(C5)[C@@H]34)cc12 (stereo not given in full),> 100 µM,0.236 µM,0.724 µM,> 100 µM,99.3 µM,> 100 µM,> 100 µM,98.6 µM,> 100 µM,> 100 µM,> 53.4 µM,0.402 µM,0.554 µM,1.14 µM,0.436 µM,0.361 µM,0.95 µM,0.541 µM,0.601 µM,0.874 µM
